Source: US12145947B2, “Pyrimidine based modulators and uses thereof” (Quanta Therapeutics, Inc., priority 2022, dated 2024)

Molecular target: T1, GST-tagged KRAS-G12D (2-169) (Homo sapiens, UniProt P01116, G12D)
T1 construct: GST-tagged KRAS-G12D (2-169, Reaction Biology, MSC-11-539); purchased Reaction Biology MSC-11-539 (KRAS G12D); MSC-11-502 (SOS1cat)
Assay: Nucleotide exchange assay (NEA), SOS-mediated, HTRF, KRAS G12D
Type: biochemical
Conditions: IC50 extracted at 30 min
Procedure, shortened: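 GST-KRAS-G12D (2-169, 5 nM final) with Tb-anti-GST donor was preincubated with compound 1 h at RT (pH 7.3 HEPES buffer, MgCl2, DTT), then SOScat (564-1049, 20 nM) and GTP-DY-647P1 (150 nM) were added. HTRF was read at RT; % inhibition vs DMSO/no-SOS blank, 4-parameter IC50 taken at 30 min.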

T1 sequence (P01116 2-169 isoform P01116-2 G12D): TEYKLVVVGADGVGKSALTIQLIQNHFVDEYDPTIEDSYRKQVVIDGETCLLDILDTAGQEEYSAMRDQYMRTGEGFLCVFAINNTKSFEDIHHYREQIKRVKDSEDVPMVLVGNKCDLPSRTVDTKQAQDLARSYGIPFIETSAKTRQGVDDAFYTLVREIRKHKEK

CN(C)CC1(COc2nc(N3C[C@H]4CC[C@@H](C3)N4)c(C#N)c(N3CC4(CCc5sc(N)c(C#N)c54)C3)n2)CC1(F)F (mixture of isomers) [Compound 74, 2-amino-1′-[5-cyano-6-(3,8-diazabicyclo[3.2.1]octan-3-yl)-2-[[1-[(dimethylamino)methyl]-2,2-difluoro-cyclopropyl]methoxy]pyrimidin-4-yl]spiro[5,6-dihydrocyclopenta[b]thiophene-4,3′-azetidine]-3-carbonitrile]
IC50 (Table 4): 10 to 100 nM

CN(C)C(=O)c1nn2c(c1Cl)CN(c1nc(OC[C@@]34CCCN3C[C@H](F)C4)nc(N3CC4(CCc5sc(N)c(C#N)c54)C3)c1C#N)CCC2 [Compound 2, 5-[6-(2-amino-3-cyano-spiro[5,6-dihydrocyclopenta[b]thiophene-4,3′-azetidine]-1′-yl)-5-cyano-2-[[(2R,8S)-2-fluoro-1,2,3,5,6,7-hexahydropyrrolizin-8-yl]methoxy]pyrimidin-4-yl]-3-chloro-N,N-dimethyl-4,6,7,8-tetrahydropyrazolo[1,5-a][1,4]diazepine-2-carboxamide]
IC50 (Table 2): < 10 nM
IC50 (Table 4): < 10 nM

CN(C)C(=O)c1nn2c(c1Cl)CN(c1nc(OC[C@@]34CCCN3C[C@H](F)C4)nc(N3CC4(CCCc5sc(N)c(C#N)c54)C3)c1C#N)CCC2 [Compound 3, 5-[6-(2-amino-3-cyano-spiro[6,7-dihydro-5H-benzothiophene-4,3′-azetidine]-1′-yl)-5-cyano-2-[[(2R,8S)-2-fluoro-1,2,3,5,6,7-hexahydropyrrolizin-8-yl]methoxy]pyrimidin-4-yl]-3-chloro-N,N-dimethyl-4,6,7,8-tetrahydropyrazolo[1,5-a][1,4]diazepine-2-carboxamide]
IC50 (Table 2): < 10 nM
IC50 (Table 4): < 10 nM

N#Cc1c(N2C[C@H]3CC[C@@H](C2)N3)nc(OCC2(CN3CCOCC3)CC2)nc1N1CC2(CCc3sc(N)c(C#N)c32)C1 [Compound 4, 2-amino-1′-[5-cyano-2-[[1-(morpholinomethyl)cyclopropyl]methoxy]-6-[(1R,5S)-3,8-diazabicyclo[3.2.1]octan-3-yl]pyrimidin-4-yl]spiro[5,6-dihydrocyclopenta[b]thiophene-4,3′-azetidine]-3-carbonitrile]
IC50 (Table 4): < 10 nM

CN(C)C(=O)c1nn2c(c1Cl)CN(c1nc(OCC3(CN4CCOCC4)CC3)nc(N3CC4(CCc5sc(N)c(C#N)c54)C3)c1C#N)CCC2 [Compound 5, 5-[6-(2-amino-3-cyano-spiro[5,6-dihydrocyclopenta[b]thiophene-4,3′-azetidine]-1′-yl)-5-cyano-2-[[1-(morpholinomethyl)cyclopropyl]methoxy]pyrimidin-4-yl]-3-chloro-N,N-dimethyl-4,6,7,8-tetrahydropyrazolo[1,5-a][1,4]diazepine-2-carboxamide]
IC50 (Table 4): < 10 nM

N#Cc1c(N)sc2c1C1(CC2)CN(c2nc(OC[C@@]34CCCN3C[C@H](F)C4)nc(N3CCC[C@]4(C3)NC(=O)NC4=O)c2F)C1 [Compound 7, 2-amino-1′-[6-[(5R)-2,4-dioxo-1,3,9-triazaspiro[4.5]decan-9-yl]-5-fluoro-2-[[(2R,8S)-2-fluoro-1,2,3,5,6,7-hexahydropyrrolizin-8-yl]methoxy]pyrimidin-4-yl]spiro[5,6-dihydrocyclopenta[b]thiophene-4,3′-azetidine]-3-carbonitrile]
IC50 (Table 4): < 10 nM

CN(C)C(=O)c1cc2n(n1)CCCN(c1nc(OC[C@@]34CCCN3C[C@H](F)C4)nc(N3CC4(CCc5sc(N)c(C#N)c54)C3)c1C#N)C2 [Compound 8, 5-[6-(2-amino-3-cyano-spiro[5,6-dihydrocyclopenta[b]thiophene-4,3′-azetidine]-1′-yl)-5-cyano-2-[[(2R,8S)-2-fluoro-1,2,3,5,6,7-hexahydropyrrolizin-8-yl]methoxy]pyrimidin-4-yl]-N,N-dimethyl-4,6,7,8-tetrahydropyrazolo[1,5-a][1,4]diazepine-2-carboxamide]
IC50 (Table 4): < 10 nM

CN(C)C(=O)c1nn2c(c1Cl)CN(c1nc(OC[C@@]34CCCN3C[C@H](F)C4)nc(N3CC4(CCc5sc(N)c(C#N)c54)C3)c1F)CCC2 [Compound 9, 5-[6-(2-amino-3-cyano-spiro[5,6-dihydrocyclopenta[b]thiophene-4,3′-azetidine]-1′-yl)-5-fluoro-2-[[(2R,8S)-2-fluoro-1,2,3,5,6,7-hexahydropyrrolizin-8-yl]methoxy]pyrimidin-4-yl]-3-chloro-N,N-dimethyl-4,6,7,8-tetrahydropyrazolo[1,5-a][1,4]diazepine-2-carboxamide]
IC50 (Table 4): < 10 nM

CN(C)C(=O)c1nn2c(c1Cl)CN(c1nc(OC[C@@]34CCCN3C[C@H](F)C4)nc(N3CC4(CCCCc5sc(N)c(C#N)c54)C3)c1C#N)CCC2 [Compound 10, 5-[6-(2-amino-3-cyano-spiro[5,6,7,8-tetrahydrocyclohepta[b]thiophene-4,3′-azetidine]-1′-yl)-5-cyano-2-[[(2R,8S)-2-fluoro-1,2,3,5,6,7-hexahydropyrrolizin-8-yl]methoxy]pyrimidin-4-yl]-3-chloro-N,N-dimethyl-4,6,7,8-tetrahydropyrazolo[1,5-a][1,4]diazepine-2-carboxamide]
IC50 (Table 4): < 10 nM

N#Cc1c(N2CC3(CCc4sc(N)c(C#N)c43)C2)nc(OC[C@@]23CCCN2C[C@H](F)C3)nc1N1CCC[C@]2(C1)NC(=O)NC2=O [Compound 11, 2-amino-1′-[5-cyano-6-[(5R)-2,4-dioxo-1,3,9-triazaspiro[4.5]decan-9-yl]-2-[[(2R,8S)-2-fluoro-1,2,3,5,6,7-hexahydropyrrolizin-8-yl]methoxy]pyrimidin-4-yl]spiro[5,6-dihydrocyclopenta[b]thiophene-4,3′-azetidine]-3-carbonitrile]
IC50 (Table 4): < 10 nM

N#Cc1c(N2CCCC3(C2)NC(=O)NC3=O)nc(OC[C@@]23CCCN2C[C@H](F)C3)nc1N1CC2(CCc3sc(N)c(C#N)c32)C1 (stereo partly drawn) [Compound 12, 2-amino-1′-[5-cyano-6-(2,4-dioxo-1,3,9-triazaspiro[4.5]decan-9-yl)-2-[[(2R,8S)-2-fluoro-1,2,3,5,6,7-hexahydropyrrolizin-8-yl]methoxy]pyrimidin-4-yl]spiro[5,6-dihydrocyclopenta[b]thiophene-4,3′-azetidine]-3-carbonitrile]
IC50 (Table 4): < 10 nM

CC(=O)c1nn2c(c1Cl)CN(c1nc(OC[C@@]34CCCN3C[C@H](F)C4)nc(N3CC4(CCc5sc(N)c(C#N)c54)C3)c1C#N)CCC2 [Compound 13, 1′-[6-(2-acetyl-3-chloro-4,6,7,8-tetrahydropyrazolo[1,5-a][1,4]diazepin-5-yl)-5-cyano-2-[[(2R,8S)-2-fluoro-1,2,3,5,6,7-hexahydropyrrolizin-8-yl]methoxy]pyrimidin-4-yl]-2-amino-spiro[5,6-dihydrocyclopenta[b]thiophene-4,3′-azetidine]-3-carbonitrile]
IC50 (Table 4): < 10 nM

CC1CC2(CN(c3nc(OC[C@@]45CCCN4C[C@H](F)C5)nc(N4CCCn5nc(C(=O)N(C)C)c(Cl)c5C4)c3C#N)C2)c2c1sc(N)c2C#N (stereo partly drawn) [Compound 14, 5-[6-(2-amino-3-cyano-6-methyl-spiro[5,6-dihydrocyclopenta[b]thiophene-4,3′-azetidine]-1′-yl)-5-cyano-2-[[(2R,8S)-2-fluoro-1,2,3,5,6,7-hexahydropyrrolizin-8-yl]methoxy]pyrimidin-4-yl]-3-chloro-N,N-dimethyl-4,6,7,8-tetrahydropyrazolo[1,5-a][1,4]diazepine-2-carboxamide]
IC50 (Table 4): < 10 nM
